Holding throughout (test): NCI tumour cell line growth inhibition, 48 h
The test system of assay [1] is SNB-75 CNS.
For assay [2], the system named is TK-10 renal.
Assay [3] relates to K-562 leukemia.
Assay [4] relates to HCT-15 colon.
Assay [5] has as its system UACC-62 melanoma.
Assay [6] relates to M14 melanoma.
The test system of assay [7] is SN12C renal.
Assay [8] deals with SF-539 CNS.
In assay [9] the test system is SK-MEL-28 melanoma.
For assay [10], the system named is NCI-H522 lung.
Assay [11] relates to MOLT-4 leukemia.
Assay [12] relates to MDA-MB-231 breast.
Assay [13] deals with HOP-62 NSCLC.
In assay [14] the test system is U251 CNS.
Assay [15] relates to HT29 colon.
In assay [16] the test system is HL-60(TB) leukemia.

Drawing on PubChem BioAssay (NCI), this text covers TGI for 18 compounds.

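Tested at 5 concentrations; 48 h exposure; 96-well plates; endpoints linearly interpolated, else capped at highest concentration. TGI: total growth inhibition.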 Where only a bound is given, the exact number is not on record here.

Turning to `CC(C)(C)OC(=O)N1CCC2(C)CC(=O)CC=C12` (centres undefined), the TGI in [1], in assay [2], in [3], in assay [4], in assay [5] and in [6] was more than 100 µM in each case. In addition, the TGI in [7], in [8], in [9], in [10], in [11] and in [12] was more than 100 µM each time. Besides, the TGI in assay [13], in assay [14], in assay [15] and in [16] was more than 100 µM throughout.

`CC1OC(OC2C(OC(=O)[C@@H]3CC(C)(C)C[C@@H]4C5=CC[C@@H]6[C@@]7(C)C[C@H](O)[C@H](OC8OC(CO)C(O)C(O)C8O)[C@@](C)(CO)C7[C@H](O)C[C@@]6(C)[C@]5(C)C[C@@H](O)[C@H]43)OCC(O)C2O)C(O)C(O)C1O` (some centres undefined): the TGI in assay [1], in assay [2], in [3], in assay [4], in [5] and in [6] was more than 15 µM each time. Besides, the TGI in assay [7], in [8], in assay [10], in assay [11], in assay [12] and in assay [13] was more than 15 µM in each case. For the same compound, the TGI in assay [14], in assay [15] and in assay [16] was more than 15 µM each time.

Consider `CN(C)CCCNc1c(C#N)[n+]([O-])c2cc(Cl)ccc2[n+]1[O-]`, for which the TGI in [1] was more than 100 µM; in assay [2], more than 39.9 µM; in [3], 20.8 µM; in [4] it was 18.6 µM; in assay [5], 17.4 µM; in assay [6], 37.6 µM. For the same compound, the TGI in assay [7] was 53.3 µM; in assay [8], 47.4 µM; in assay [9] it was more than 100 µM; in [10], 14.1 µM; in assay [11], 20.2 µM; in [12], 37.2 µM. Also, the TGI in [13] was more than 48.7 µM; in assay [14], more than 66.6 µM; in assay [15] it was more than 40 µM; in assay [16], 30.3 µM.

For `Nc1ncnc2c1ncn2C1OC(CO)C(O)C(O)C1O` (centres undefined), the TGI in assay [1], in assay [2], in assay [3], in assay [4], in assay [6] and in [7] was more than 100 µM in each case. The TGI in assay [8], in assay [9], in assay [10], in assay [11], in assay [12] and in assay [13] was more than 100 µM throughout. In addition, the TGI in [14], in assay [15] and in assay [16] was more than 100 µM each time.

Take `CCN(C(C)=O)c1cnc(/C=N/NC(N)=S)c2ccccc12`: the TGI is more than 100 µM in assay [1]; more than 100 µM in [2]; more than 100 µM in assay [3]; more than 100 µM in assay [4]; 11 µM in assay [5]; more than 30.7 µM in assay [6]. For the same compound, the TGI was more than 57.6 µM in [7]; 13.6 µM in assay [8]; more than 100 µM in [9]; more than 36.2 µM in assay [10]; more than 31.5 µM in [11]; more than 100 µM in assay [12]. For the same compound, the TGI in assay [13] was more than 60.1 µM; in assay [14] it was more than 100 µM; in assay [15] it was more than 100 µM; in assay [16], more than 28.5 µM.

For the compound `NC1CC(Cl)c2c(Cl)sc(Cl)c21` (centres undefined), the TGI in assay [1], in assay [2], in assay [3], in assay [4], in [5] and in assay [6] was more than 100 µM in each case. The TGI was more than 100 µM in [7]; more than 100 µM in [8]; more than 100 µM in assay [9]; 0.049 µM in assay [10]; more than 100 µM in assay [11]; more than 100 µM in assay [12]. Further, the TGI in [13], in [14], in assay [15] and in assay [16] was more than 100 µM throughout.

Take `NC(=S)N/N=C1/CCCC2CCCC[C@@H]12` (some centres undefined): the TGI in assay [1], in assay [2], in assay [3], in assay [4], in assay [5] and in assay [6] was more than 100 µM throughout. Moreover, the TGI in assay [8], in [9], in assay [10], in [11], in assay [12] and in [13] was more than 100 µM in each case. Also, the TGI in assay [14], in assay [15] and in [16] was more than 100 µM in each case.

For the compound `CC1(C)C/C(=N/O)c2c(nc3ccc4ccccc4c3c2-c2ccc(Cl)cc2)C1`, the TGI in assay [1] was 35.7 µM; in [2], 33.9 µM; in [3], 65.6 µM; in assay [4], 41.6 µM; in [5], 37.1 µM; in [6], more than 100 µM. Besides, the TGI in assay [7] is 22.7 µM; in assay [8] it was 36.4 µM; in assay [9], more than 100 µM; in assay [10], 28.6 µM; in assay [11], 52.6 µM; in assay [12], 24.4 µM. The TGI worked out at 92.2 µM in assay [13], 24 µM in [14], 33.5 µM in [15] and 26.1 µM in [16].

In the case of `c1ccc2c(c1)cc1c3[nH]c4ccccc4c3ccn21`, the TGI in [1], in [2], in [3], in [4], in assay [5] and in assay [6] was more than 10 µM throughout. For the same compound, the TGI in [7], in assay [8], in [9], in assay [10], in [11] and in assay [12] was more than 10 µM throughout. In addition, the TGI in assay [13], in assay [14], in [15] and in assay [16] was more than 10 µM throughout.

As for `CN(N)/N=N/c1nc[nH]c1[N+](=O)[O-]`, the TGI in assay [1] was more than 100 µM; in assay [2], more than 100 µM; in [3] it was 73 µM; in assay [4], more than 100 µM; in assay [5], more than 100 µM; in assay [6], more than 100 µM. Moreover, the TGI in assay [7] was more than 100 µM; in assay [8], more than 100 µM; in assay [9], more than 100 µM; in [10], more than 100 µM; in [11] it was 54.6 µM; in [12], 60.9 µM. Moreover, the TGI in assay [13] was more than 100 µM; in assay [14], more than 100 µM; in assay [15] it was more than 100 µM; in [16], 12.2 µM.

With `C=CCN1C(=O)/C(=C/c2ccc(C)cc2)NC1=S`, the TGI in assay [1], in [2], in assay [3], in assay [4], in assay [5] and in [6] was more than 100 µM in each case. The TGI in assay [7], in [8], in assay [9], in [10], in assay [11] and in assay [12] was more than 100 µM each time. Moreover, the TGI in [13] was more than 100 µM; in assay [14] it was more than 100 µM; in assay [15], more than 100 µM; in [16], 48.9 µM.

For `CC1=C(C(=O)N(C(C)C)C(C)C)CC(C(=O)N(C(C)C)C(C)C)=C(C)N1`, the TGI in assay [1], in assay [2], in assay [3], in assay [4], in [5] and in assay [6] was more than 100 µM each time. Besides, the TGI in assay [7], in [8], in [10], in assay [11], in assay [12] and in assay [13] was more than 100 µM throughout. For the same compound, the TGI in [14], in [15] and in assay [16] was more than 100 µM throughout.

Turning to `CC(C)(C)OC(=O)NC(CCC(=O)OCc1ccccc1)C(=O)NCCCO` (centres undefined), the TGI in assay [1], in assay [2], in assay [3], in assay [4], in [5] and in assay [6] was more than 100 µM each time. Also, the TGI in assay [7], in assay [8], in [9], in assay [10], in assay [11] and in assay [12] was more than 100 µM in each case. Besides, the TGI in assay [13], in assay [14], in assay [15] and in [16] was more than 100 µM throughout.

For `O=C(c1ccccc1)N1OCCC1Nc1ccc(Br)cc1` (centres undefined), the TGI in assay [1], in assay [2], in assay [3], in assay [4], in [6] and in assay [7] was more than 10 µM each time. The TGI in assay [8], in [9], in assay [10], in assay [11], in assay [12] and in assay [13] was more than 10 µM in each case. In addition, the TGI in [15] and in assay [16] was more than 10 µM each time.

`O=C(Cc1ccc(Cl)cc1)Nc1ccc2oc(-c3ccccc3)nc2c1`: the TGI in [1] is 72.1 µM; in assay [2], more than 100 µM; in assay [3], more than 100 µM; in [4] it was more than 100 µM; in assay [5], more than 100 µM; in assay [6], more than 100 µM. Moreover, the TGI in [7], in [8], in assay [9], in assay [10], in [11] and in [12] was more than 100 µM throughout. The TGI in assay [13], in assay [14], in [15] and in assay [16] was more than 100 µM throughout.

Regarding `COc1ccc(N2C(=O)C(C)SC2c2cc3cc(Br)ccc3nc2Cl)cc1` (centres undefined), the TGI is more than 100 µM in assay [1]; 91.4 µM in assay [2]; more than 100 µM in assay [3]; more than 100 µM in [4]; more than 100 µM in [5]; more than 100 µM in assay [6]. In addition, the TGI is more than 100 µM in [7]; 55.7 µM in [8]; more than 100 µM in assay [9]; 78.6 µM in assay [10]; 79.2 µM in assay [11]; more than 100 µM in assay [12]. Further, the TGI in [13] is more than 100 µM; in [15], more than 100 µM; in [16], 74.7 µM.

Take `CC1=NN(C(=O)CC(=O)Nc2ccc(C)cc2)C(=O)C1N=Nc1ccc(S(=O)(=O)c2ccc(N=NC3C(=O)N(C(=O)CC(=O)Nc4ccc(C)cc4)N=C3C)cc2)cc1` (centres undefined): the TGI in assay [1], in [2], in assay [3], in assay [4], in [5] and in assay [6] was more than 100 µM throughout. For the same compound, the TGI in assay [7], in assay [8], in [9], in assay [10], in assay [11] and in assay [12] was more than 100 µM throughout. Moreover, the TGI in [13], in assay [14] and in assay [16] was more than 100 µM throughout.

With `Oc1cc(-c2ccc(Cl)cc2)cn2c1nc1ccccc12`, the TGI in assay [1], in assay [2], in [3], in assay [4], in [5] and in assay [6] was more than 100 µM throughout. The TGI in assay [7], in assay [8], in assay [9], in assay [10], in [12] and in assay [13] was more than 100 µM in each case. Further, the TGI in assay [14], in assay [15] and in assay [16] was more than 100 µM in each case.
